Usually pIC50 stands for −log10 of the IC50, conventionally taken in molar units. A higher pIC50 goes with a small IC50. As usually defined, the inhibition is how much of the control response was suppressed. Low values mean a response near the control, high ones a response far below the control. Usually pKi stands for −log10 of the Ki, conventionally taken in molar units. One may read the solubility (kinetic) as solubility judged after dilution from a stock solution rather than from solid.

pIC50, pKi: −log10 of the molar value.

These results are taken from ChEMBL document CHEMBL4616721, “Nitrogen-Walk Approach to Explore Bioisosteric Replacements in a Series of Potent A2B Adenosine Receptor Antagonists” (J Med Chem, 2020).

One data set addresses Cytochrome P450 3A4 (Homo sapiens, UniProt P08684). As to the kind of experiment: Inhibition of CYP3A4 (unknown origin) expressed in insect cell microsomes using dibenzylfluorescein substrate by fluorescence based assay. The class given is ADME.
In data set [1] the target is T1, Adenosine receptor A3 (Homo sapiens) (UniProt P0DMS8).
T1 sequence (whole entry): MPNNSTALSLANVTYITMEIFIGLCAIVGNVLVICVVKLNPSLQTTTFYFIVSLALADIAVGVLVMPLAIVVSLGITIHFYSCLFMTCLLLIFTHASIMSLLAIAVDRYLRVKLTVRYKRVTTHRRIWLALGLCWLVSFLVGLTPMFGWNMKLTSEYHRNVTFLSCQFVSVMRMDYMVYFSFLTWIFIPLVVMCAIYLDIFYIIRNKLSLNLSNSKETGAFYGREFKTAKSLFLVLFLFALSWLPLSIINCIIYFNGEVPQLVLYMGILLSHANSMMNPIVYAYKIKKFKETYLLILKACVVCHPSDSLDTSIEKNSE
The experiment in a line: Displacement [3H]NECA from adenosine A3 receptor in human HeLa cell membranes at 1 uM incubated for 180 mins by scintillation counting method relative to control.

The target in data set [2] is T2, Adenosine receptor A1 (Homo sapiens) (UniProt P30542).
T2 sequence (whole entry): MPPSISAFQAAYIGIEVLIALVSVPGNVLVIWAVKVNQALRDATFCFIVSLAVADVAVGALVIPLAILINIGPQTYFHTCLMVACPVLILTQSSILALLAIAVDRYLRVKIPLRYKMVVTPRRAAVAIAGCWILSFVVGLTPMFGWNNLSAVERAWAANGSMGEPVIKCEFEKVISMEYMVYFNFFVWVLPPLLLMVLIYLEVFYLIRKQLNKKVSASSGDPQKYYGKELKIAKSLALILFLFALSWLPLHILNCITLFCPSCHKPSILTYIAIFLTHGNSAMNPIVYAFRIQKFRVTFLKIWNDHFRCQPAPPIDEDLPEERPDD
The experiment in a line: Displacement [3H]DPCPX from human adenosine A1 receptor expressed in CHO cell membranes at 1 uM incubated for 60 mins by scintillation counting method relative to control.

Data set [3] concerns the target T3, CYP2D6 (Homo sapiens, UniProt P10635). As to the kind of experiment: Inhibition of CYP2D6 (unknown origin) expressed in insect cell microsomes at 10 uM using dibenzylfluorescein substrate by fluorescence based assay relative to control. The class given is ADME. The following applies: insect cell microsomes expressing CYP2D6, probe dibenzylfluorescein.
Data set [4] has as its target T4, Adenosine receptor A2a (Homo sapiens, UniProt P29274). As to the kind of experiment: Displacement [3H]ZM241385 from adenosine A2A receptor in human HeLa cell membranes incubated for 30 mins by scintillation counting method.
Data set [5] concerns the target T3, CYP2D6. The experiment in a line: Inhibition of CYP2D6 (unknown origin) expressed in insect cell microsomes at 1 uM using dibenzylfluorescein substrate by fluorescence based assay relative to control. The class given is ADME. The following applies: insect cell microsomes expressing CYP2D6, probe dibenzylfluorescein.
In a further data set the target is T5, Adenosine receptor A2b (Homo sapiens, UniProt P29275).
T5 sequence (P29275 whole entry): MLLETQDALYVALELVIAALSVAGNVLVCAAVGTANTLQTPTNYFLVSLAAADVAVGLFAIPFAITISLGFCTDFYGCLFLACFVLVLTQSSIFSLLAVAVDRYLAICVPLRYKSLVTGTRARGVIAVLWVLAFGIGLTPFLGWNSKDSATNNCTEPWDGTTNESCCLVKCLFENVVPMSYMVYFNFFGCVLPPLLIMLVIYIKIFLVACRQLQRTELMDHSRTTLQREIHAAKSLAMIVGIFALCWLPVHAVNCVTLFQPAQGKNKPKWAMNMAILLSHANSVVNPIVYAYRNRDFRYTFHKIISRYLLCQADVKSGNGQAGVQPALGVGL
The experiment in a line: Displacement [3H]DPCPX from human adenosine A2B receptor expressed in HEK293 cell membranes incubated for 60 mins by scintillation counting method.

The next data set concerns the target T6, Adenosine receptor A1 (Homo sapiens, UniProt P30542).
T6 sequence (P30542 whole entry): T2 sequence (whole entry)
As to the kind of experiment: Displacement [3H]DPCPX from human adenosine A1 receptor expressed in CHO cell membranes incubated for 60 mins by scintillation counting method.

The target in data set [6] is T4, Adenosine receptor A2a. As to the kind of experiment: Displacement [3H]ZM241385 from adenosine A2A receptor in human HeLa cell membranes at 1 uM incubated for 30 mins by scintillation counting method relative to control.
A short description of data set [7]: Solubility in pH 7 PBS incubated for 4 hrs by nephelometry. The class given is physicochemical.
Data set [8] is described as follows: Drug metabolism in human liver microsomes after 60 mins in presence of NADP,glucose-6-phosphate and glucose-6-phosphate dehydrogenase by UPLC-MS/MS analysis. The following applies: read-out: Drug metabolism. The class given is ADME, Microsome. (In general: Liver microsomes are a subcellular fraction often used to study metabolism.)
The target in another data set is T7, Adenosine receptor A3 (Homo sapiens, UniProt P0DMS8).
T7 sequence (P0DMS8 whole entry): T1 sequence (whole entry)
The experiment in a line: Displacement [3H]NECA from adenosine A3 receptor in human HeLa cell membranes incubated for 180 mins by scintillation counting method.

T3 sequence (P10635 whole entry): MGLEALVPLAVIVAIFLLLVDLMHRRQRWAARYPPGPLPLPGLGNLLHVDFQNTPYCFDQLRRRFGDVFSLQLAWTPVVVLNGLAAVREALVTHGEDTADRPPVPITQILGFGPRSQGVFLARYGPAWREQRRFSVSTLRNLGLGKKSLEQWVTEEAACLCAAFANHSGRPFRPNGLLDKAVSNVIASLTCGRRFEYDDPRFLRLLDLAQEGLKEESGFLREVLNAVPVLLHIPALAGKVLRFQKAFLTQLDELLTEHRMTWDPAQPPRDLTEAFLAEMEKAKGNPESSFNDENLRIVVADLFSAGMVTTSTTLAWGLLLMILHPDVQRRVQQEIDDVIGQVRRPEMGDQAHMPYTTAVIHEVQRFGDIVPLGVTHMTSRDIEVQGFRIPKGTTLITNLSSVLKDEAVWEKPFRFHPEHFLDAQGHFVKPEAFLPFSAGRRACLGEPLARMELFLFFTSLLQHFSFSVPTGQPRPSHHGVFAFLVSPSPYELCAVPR
Sequence of Cytochrome P450 3A4 (P08684 whole entry): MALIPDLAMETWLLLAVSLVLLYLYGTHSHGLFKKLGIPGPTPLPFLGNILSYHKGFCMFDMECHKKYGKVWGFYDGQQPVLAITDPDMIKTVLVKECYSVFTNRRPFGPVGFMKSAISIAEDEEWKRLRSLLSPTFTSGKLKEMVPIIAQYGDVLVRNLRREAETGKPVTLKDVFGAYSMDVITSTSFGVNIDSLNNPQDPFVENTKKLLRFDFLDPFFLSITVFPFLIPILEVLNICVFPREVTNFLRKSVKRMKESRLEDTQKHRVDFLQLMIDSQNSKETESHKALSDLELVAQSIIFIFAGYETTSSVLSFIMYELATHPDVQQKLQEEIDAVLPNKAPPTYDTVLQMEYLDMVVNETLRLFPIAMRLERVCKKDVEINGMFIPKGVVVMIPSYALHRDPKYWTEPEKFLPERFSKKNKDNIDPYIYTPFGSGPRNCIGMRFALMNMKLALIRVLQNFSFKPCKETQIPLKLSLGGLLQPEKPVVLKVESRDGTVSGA
T4 sequence (P29274 whole entry): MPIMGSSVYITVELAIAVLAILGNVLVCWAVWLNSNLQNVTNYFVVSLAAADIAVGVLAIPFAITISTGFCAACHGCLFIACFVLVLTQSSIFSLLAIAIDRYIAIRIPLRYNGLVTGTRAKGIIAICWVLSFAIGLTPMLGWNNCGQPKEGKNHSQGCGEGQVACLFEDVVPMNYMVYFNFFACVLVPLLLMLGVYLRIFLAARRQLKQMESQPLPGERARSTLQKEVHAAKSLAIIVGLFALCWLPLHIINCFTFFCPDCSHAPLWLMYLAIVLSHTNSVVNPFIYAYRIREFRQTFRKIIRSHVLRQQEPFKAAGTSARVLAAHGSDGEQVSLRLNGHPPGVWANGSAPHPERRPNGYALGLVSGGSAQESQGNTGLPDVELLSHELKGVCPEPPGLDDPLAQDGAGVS

`CCOC(=O)C1=C(C)Nc2nc3ccccc3n2C1c1ncc[nH]1` (racemic): the pIC50 against Cytochrome P450 3A4 is 5.34. For the same compound, the inhibition in data set [1] was 1%; in data set [2], 6%. Moreover, the inhibition at 10 µM against CYP2D6 [3] came to 18%. The negative-log Ki (pKi) was 8.30 at Adenosine receptor A2a [4] and 6.40 on Adenosine receptor A2b. For the same compound, on CYP2D6 [5], testing at 1 µM gave an inhibition of 8%.
For `CC1=C(C(=O)OC(C)C)C(c2ncco2)n2c(nc3ccccc32)N1` (racemic), the inhibition in data set [1] was 10%; in [2], 1%. Moreover, the negative-log Ki (pKi) was 9.00 at Adenosine receptor A2a [4] and 6.15 at Adenosine receptor A2b.
The compound `CC1=C(C(=O)OC(C)C)C(c2cnco2)n2c(nc3ccccc32)N1` (racemic) showed a pKi at Adenosine receptor A1 of 6.52. In addition, the inhibition in data set [1] worked out at 39%; at Adenosine receptor A2a [6], 38%.
As for `CCOC(=O)C1=C(C)Nc2nc3ccccc3n2C1c1nccs1` (racemic), the inhibition in data set [1] was determined as 1%; in [2], 3%. The pKi on Adenosine receptor A2a [4] is 8.52; at Adenosine receptor A2b it was 6.41.
Regarding `CCOC(=O)C1=C(C)Nc2nc3ccccc3n2C1c1cocn1` (racemic), on Cytochrome P450 3A4, the negative-log IC50 (pIC50) is 5.19. Also, the solubility (kinetic) at 4 h in [7] is over 20 µM. Moreover, on CYP2D6 [3], the inhibition at 10 µM amounted to 19%. The compound also gave an inhibition at 1 µM at CYP2D6 [5] of 13%. The metabolised at 1 h in data set [8] came out at 5.62%.
Take `CCOC(=O)C1=C(C)Nc2nc3ccccc3n2C1c1cnco1` (racemic): the pKi on Adenosine receptor A1 is 6.63; at Adenosine receptor A3 it was 6.38; at Adenosine receptor A2a [4] it was 6.55; at Adenosine receptor A2b, 6.29.
Turning to `CCOC(=O)C1=C(C)Nc2nc3ccccc3n2C1c1ccns1` (racemic), the pKi on Adenosine receptor A1 is 7.69; on Adenosine receptor A2b, 7.01. In addition, the inhibition in data set [1] was 8%; on Adenosine receptor A2a [6] it was 7%.
Take `CC1=C(C(=O)OC(C)C)C(c2cn[nH]c2)n2c(nc3ccccc32)N1` (racemic): the pKi at Adenosine receptor A1 is 8.08; on Adenosine receptor A2b it was 6.47. For the same compound, the inhibition was 6% in data set [1] and 40% on Adenosine receptor A2a [6].
For `CCOC(=O)C1=C(C)Nc2nc3ccccc3n2C1c1ncco1` (racemic), the inhibition was 10% in data set [1] and 8% in data set [2]. The pKi was 8.70 on Adenosine receptor A2a [4] and 6.11 on Adenosine receptor A2b.
At Cytochrome P450 3A4, `CC1=C(C(=O)OC(C)C)C(c2cocn2)n2c(nc3ccccc32)N1` (racemic) had a negative logarithm of the IC50 (pIC50) of 5.23. In addition, the results for the inhibition (in data set [1]; in data set [2]; at Adenosine receptor A2a [6]) were 16%, 7% and 19%, respectively. This compound displayed an inhibition at 10 µM at CYP2D6 [3] of 43%. At 1 µM the inhibition against CYP2D6 [5] was 23%. In addition, the negative-log Ki (pKi) at Adenosine receptor A2b is 7.36.
On to `CCOC(=O)C1=C(C)Nc2nc3ccccc3n2C1c1cn[nH]c1` (racemic), for which the pKi at Adenosine receptor A1 was 7.83; on Adenosine receptor A2b, 7.03. The inhibition in data set [1] is 1%; on Adenosine receptor A2a [6] it was 28%.
